Assay results: patent publication US8846937B2, “Mono quaternary ammonium salts and methods for modulating neuronal nicotinic acetylcholine receptors” (University of Kentucky Research Foundation, priority 2006, dated 2014)

How the values were obtained:
[1] = target: T1, Rat Striatal Nicotinic Receptors ([^3H]NIC binding) (Rattus norvegicus, UniProt P09483+P12390); test: Inhibition of [^3H]nicotine binding to brain membranes; details: 3 nM [^3H]NIC; for Ki: full concentration effect; for inhibition at 0.1 µM: % inhibition at 100 nM analog, nonspecific 10 μM nicotine
T1 construct: Whole brain, excluding cortex and cerebellum, was homogenized; from tissue; host or cells: rat brain membranes (whole brain excluding cortex and cerebellum)
Procedure: (§1) Test compounds of Formula (I), representing the mono quaternary nicotine analogs of the present invention, were evaluated to determine the effect of a test compound on nicotine-binding and methyllycaconitine-binding mediated by nicotine acetylcholine receptors.
(§2) Homogenate was centrifuged (25,000 g, 15 min, 4° C.). Pellets were resuspended in 20 volumes of buffer and incubated at 37° C., for 10 min, cooled to 4° C. and centrifuged (25,000 g, 15 min, 4° C.). Pellets were resuspended and centrifuged using the same conditions. […] Upon use, final pellets were resuspended in ˜20 volumes of assay buffer. Samples (250 μl) contained 100-140 μg of membrane protein, 3 nM [^3H]nicotine or 3 nM [^3H]methyllycaconitine (MLA), and test compounds of Formula (I) (100 nM) in assay buffer containing 50 mM Tris. A control sample absent test compounds of Formula (I) was also prepared. In the [^3H]nicotine-binding assay and [^3H]MLA-binding assay, nonspecific-binding was determined in the presence of 10 μM nicotine and 10 μM MLA, respectively. Incubations proceeded for 60 min at a room temperature using 96-well plates, and were terminated by harvesting on Unifilter-96 GF/B filter plates presoaked in 0.5% polyethylenimine, using a Packard FilterMate harvester. After washing 5 times with 350 μl ice-cold assay buffer, the filter plates were dried (60 min, 4° C.), bottom-sealed, and filled with Packard's MicroScint 20 cocktail (40 μl/well). After 60 min, filter plates were top-sealed, and levels of radioactivity were determined using a Packard TopCount. Protein concentrations were determined using the Bradford dye-binding procedure using bovine serum albumin as a standard protein.
Specific binding in the [^3H]NIC binding assay is calculated as the difference between the total binding of 3 nM [^3H]NIC and nonspecific binding in the presence of 10 μM cold nicotine. […] Analog-induced inhibition of nicotine-evoked [^3H]DA release is calculated as a percent of that in the absence of the mono quaternary ammonium analog. ND indicates not determined.

[2] = target: T2, Rat Striatal Nicotinic Receptors ([^3H]MLA binding) (Rattus norvegicus, UniProt Q05941); test: Inhibition of [^3H]methyllycaconitine (MLA) binding to brain membranes; details: for Ki: full concentration effect, 2.5 nM [^3H]MLA (footnote); for inhibition at 0.1 µM: % inhibition at 100 nM analog, 2.5 nM [^3H]MLA, nonspecific 1 μM MLA (footnote)
T2 construct: Whole brain, excluding cortex and cerebellum, was homogenized; from tissue; host or cells: rat brain membranes (whole brain excluding cortex and cerebellum)
Procedure: as §1
as §2, with “Samples (250 μl) contained 100-140 μg of membrane protein, 3 nM [^3H]nicotine or 3 nM [^3H]methyllycaconitine (MLA), and test compounds of Formula (I) (100 nM) in assay buffer containing 50 mM Tris.” left out, “In the [^3H]nicotine-binding assay and [^3H]MLA-binding assay, nonspecific-binding was determined in the presence of 10 μM nicotine and 10 μM MLA, respectively.” left out, “protein. […]” for “protein.”

[3] = test system: nicotinic receptors, NIC-evoked [^3H]DA release from rat striatal slices; test: Inhibition of nicotine-evoked [^3H]dopamine release from superfused rat striatal slices; assay type: cell-based; details: 1 h, 100 nM analog superfused 60 minutes prior to NIC (10 μM)
Procedure: Rat striatal slices (500 μm thickness, 6-8 mg wet weight) were incubated for 30 minutes in Krebs buffer (118 mM NaCl, 4.7 mM KCl, 1.2 mM MgCl2, 1.0 mM NaH2PO4, 1.3 mM CaCl2, 11.1 mM glucose, 25 mM NaHCO3, 0.11 mM L-ascorbic acid, and 0.004 mM disodium EDTA at pH 7.4, and saturated with 95% O2/5% CO2) in a metabolic shaker at 34° C. Slices were rinsed with 15 mL of fresh buffer, and were incubated for an additional 30 minutes in fresh buffer containing 0.1 μM [^3H]dopamine (DA; 6 slices/3 mL). Subsequently, slices were rinsed with 15 mL of fresh buffer and transferred to a glass superfusion chamber. Slices were superfused (1.0 mL/min) for 60 minutes with Krebs buffer containing nomifensine (10 μM) and pargyline (10 μM), and maintained at 34° C., pH 7.4, with continual aeration (95% O2/5% CO2). Two five minute samples (5 mL each) were collected to determine basal outflow of [^3H]DA. The test compounds of Formula (I) were added to the superfusion buffer after the collection of the second sample, and were maintained in the buffer until 12 consecutive five minute samples were collected. Subsequently, S-(−)-nicotine (10 μM) was added to the buffer, and an additional 12 consecutive five minute samples were collected. At the end of the experiment, each slice was solubilized, and the [^3H]content of the tissue determined.
Radioactivity in the superfusate and tissue samples was determined by liquid scintillation spectroscopy. Fractional release of tritium collected in each sample was divided by the total tritium present in the tissue at the time of sample collection, and the fractional release of tritium collected was expressed as a percentage of total tritium. Basal [^3H]outflow was calculated from the average of the tritium collected in the two five minute samples just before addition of a test compound of Formula (I). The sum of the increase in collected tritium resulting from either exposure to a test compound of Formula (I), or exposure to S(−) nicotine in the absence and presence of a test compound of Formula (I) equaled total [^3H]overflow. [^3H]Overflow was calculated by subtracting the [^3H]outflow during an equivalent period of pre-stimulation from the values in samples collected during and after drug exposure. Inasmuch as the radio-labeled compounds were not separated and identified, the tritium collected in superfusate is referred to as either [^3H]outflow or [^3H]overflow, rather than as [^3H]DA. [^3H]Overflow primarily represents [^3H]DA in the presence of nomifensine and pargyline in the superfusion buffer.
The quaternary analogs of Formula (I) were also evaluated for their ability to inhibit NIC-evoked [^3H]DA release. In these experiments, the striatal slices were superfused for 60 minutes with 100 nM concentration of the quaternary analogs prior to NIC (10 μM) exposure. Antagonist activity was evaluated by comparing the NIC-evoked [^3H]overflow in the absence and presence of the analogs. The relative order of potency of the quaternary analogs of Formula (I) for inhibition of NIC-evoked [^3H]DA release from rat striatal slices is illustrated in Table 1.
^aData are % inhibition at 100 nM concentration of the mono quaternary analogs for at least 1-3 independent experiments; with the exception of when a Ki value in μM is provided, in which case a full concentration effect was evaluated. Specific binding in the [^3H]NIC binding assay is calculated as the difference between the total binding of 3 nM [^3H]NIC and nonspecific binding in the presence of 10 μM cold nicotine. Specific binding for the [^3H]MLA binding assay is calculated as the difference between the total binding of 2.5 nM [^3H]MLA to the receptors alone and its nonspecific binding in the presence of 1 μM cold MLA. Analog-induced inhibition of nicotine-evoked [^3H]DA release is calculated as a percent of that in the absence of the mono quaternary ammonium analog. ND indicates not determined.

T2 sequence (Q05941 23-502): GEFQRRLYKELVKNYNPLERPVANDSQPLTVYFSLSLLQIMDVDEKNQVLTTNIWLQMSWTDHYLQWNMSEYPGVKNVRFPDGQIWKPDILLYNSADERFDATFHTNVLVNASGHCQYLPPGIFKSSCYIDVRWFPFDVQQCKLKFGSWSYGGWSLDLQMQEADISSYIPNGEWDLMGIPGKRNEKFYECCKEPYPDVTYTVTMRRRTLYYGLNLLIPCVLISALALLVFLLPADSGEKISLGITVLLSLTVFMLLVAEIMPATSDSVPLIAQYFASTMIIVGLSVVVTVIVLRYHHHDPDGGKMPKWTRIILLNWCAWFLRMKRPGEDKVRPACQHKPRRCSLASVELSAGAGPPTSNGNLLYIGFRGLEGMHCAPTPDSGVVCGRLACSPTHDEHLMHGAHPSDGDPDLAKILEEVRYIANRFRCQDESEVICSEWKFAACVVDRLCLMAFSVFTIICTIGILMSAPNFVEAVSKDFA
T1 sequence (P09483 31-630): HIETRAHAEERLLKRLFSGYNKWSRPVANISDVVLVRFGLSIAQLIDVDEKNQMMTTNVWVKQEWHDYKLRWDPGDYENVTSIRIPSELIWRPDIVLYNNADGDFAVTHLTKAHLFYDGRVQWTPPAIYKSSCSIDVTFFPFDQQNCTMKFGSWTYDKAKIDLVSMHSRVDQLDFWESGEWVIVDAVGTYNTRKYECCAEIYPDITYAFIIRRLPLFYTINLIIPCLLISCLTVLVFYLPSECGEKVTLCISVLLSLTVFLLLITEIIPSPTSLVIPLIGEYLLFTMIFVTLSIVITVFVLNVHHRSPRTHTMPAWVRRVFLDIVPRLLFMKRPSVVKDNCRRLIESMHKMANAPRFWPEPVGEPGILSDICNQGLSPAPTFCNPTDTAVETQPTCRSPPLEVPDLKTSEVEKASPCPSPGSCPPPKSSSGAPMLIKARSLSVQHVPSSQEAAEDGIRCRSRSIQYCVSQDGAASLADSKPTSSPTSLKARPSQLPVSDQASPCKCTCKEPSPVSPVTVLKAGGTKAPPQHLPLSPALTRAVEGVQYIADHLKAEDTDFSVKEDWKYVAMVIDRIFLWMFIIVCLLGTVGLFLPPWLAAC
T1 sequence (P12390 25-500): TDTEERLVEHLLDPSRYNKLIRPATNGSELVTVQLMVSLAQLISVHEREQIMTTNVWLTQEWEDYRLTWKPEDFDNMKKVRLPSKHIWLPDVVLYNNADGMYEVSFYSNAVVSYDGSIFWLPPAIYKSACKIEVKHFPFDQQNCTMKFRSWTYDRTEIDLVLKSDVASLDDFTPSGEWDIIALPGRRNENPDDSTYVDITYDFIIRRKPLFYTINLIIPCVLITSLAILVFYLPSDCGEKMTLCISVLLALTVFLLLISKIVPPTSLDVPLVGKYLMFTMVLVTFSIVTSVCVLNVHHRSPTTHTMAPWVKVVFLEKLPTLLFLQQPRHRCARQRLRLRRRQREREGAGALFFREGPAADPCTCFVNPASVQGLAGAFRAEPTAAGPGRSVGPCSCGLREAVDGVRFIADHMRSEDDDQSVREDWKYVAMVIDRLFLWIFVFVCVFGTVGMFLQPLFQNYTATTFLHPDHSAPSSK

SMILES | Ki [1] | Ki [2] | inhibition at 0.1 µM [3] | inhibition at 0.1 µM [1] | inhibition at 0.1 µM [2]
Cc1ccc[n+](CCCCCCCCc2ccccc2)c1 | > 100 µM | > 100 µM | 0% | – | –
Cc1cc[n+](CCCCCCCCc2ccccc2)cc1 | > 100 µM | 27 µM | 12% | – | –
CCCCc1ccc(C#CCC[n+]2ccc3c(c2)CCCC3)cc1 | > 100 µM | 3.7 µM | 70% | – | –
c1cncc(CCCCCCCCCCCCC[n+]2ccc3c(c2)CCCC3)c1 | > 100 µM | 7.2 µM | 0% | – | –
CCCCc1ccc[n+](CCCC#Cc2ccc(-c3ccccc3)cc2)c1 | – | – | 50% | 0% | 9%
C(#Cc1ccc(-c2ccccc2)cc1)CCC[n+]1ccccc1 | – | – | 34% | 2% | 6%
